This passage reports IC50 results from patent US8580829B2 (Boehringer Ingelheim International GmbH, priority 2010, dated 2013).

Read-outs that look alike come from different tables or passages of the source. Bounds are passed on as bounds.

The term IC50 denotes the concentration that gives 50% inhibition.

Assay [1] has as its system synthesis of LTB4 in human whole blood. In words: human whole blood LTB4 production inhibition assay. To be noted: heparinized human whole blood, calcimycin 20 μM, read-out: hWB LTB4 IC50. It is filed as cell-based. In a few lines:
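LTB4 in plasma was quantified by HTRF immunoassay. Before that, compound-treated heparinized whole blood (15 min, 37 °C) received 20 μM final calcimycin for a further 30 min at 37 °C, followed by centrifugation at 1500×g.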

Assay [2] deals with T1, recombinant human FLAP protein (Homo sapiens, UniProt P20292).
T1 construct: made in house; host or cells: Sf9 insect cells (100,000 x g membrane fraction)
T1 sequence (P20292 1-161): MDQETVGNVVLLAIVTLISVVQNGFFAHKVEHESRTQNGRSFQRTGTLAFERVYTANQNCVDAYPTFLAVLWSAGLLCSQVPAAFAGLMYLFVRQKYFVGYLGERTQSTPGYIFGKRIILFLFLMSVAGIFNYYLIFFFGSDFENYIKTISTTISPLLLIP
Description: FLAP binding assay (Scintillation Proximity Assay, displacement of [125I]L-691,831). To be noted: recombinant human FLAP membranes, [125I]L-691,831 probe; read-out: FLAP SPA IC50. In a few lines: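 WGA scintillation proximity beads were stirred 1 h with 5 μg of FLAP-containing membrane protein. The membranes came from baculovirus Sf9 cells, Dounce-lysed and spun to a 100,000×g pellet in buffer at pH 7.5.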

Consider `Nc1ncc(-c2ccc(C3(c4noc(-c5cccc(F)c5)n4)CCC3)cc2)cn1` [Example 52, 5-(4-{1-[5-(3-Fluoro-phenyl)-1,2,4-oxadiazol-3-yl]-cyclobutyl}-phenyl)-pyrimidin-2-ylamine], for which the results for the IC50 in assay [1] (Homo sapiens) and in assay [2] were 780 nM and 4.3 nM, respectively.
As to `Nc1ncc(-c2ccc(C3(c4noc(-c5ccc(C(=O)N6CCC(F)(F)C6)nc5)n4)CCC3)cc2)cn1` [Example 75, [5-(3-{1-[4-(2-Amino-pyrimidin-5-yl)-phenyl]-cyclobutyl}-1,2,4-oxadiazol-5-yl)-pyridin-2-yl]-(3,3-difluoro-pyrrolidin-1-yl)-methanone], the IC50 in assay [1] (Homo sapiens) was 190 nM; in assay [2] it was 3.5 nM.
Taken in the same sequence, the figures for `NC(=O)c1nc(C2(c3ccc(-c4cnc(N)nc4)cc3)CCC2)no1` [Example 177, 3-{1-[4-(2-Amino-pyrimidin-5-yl)-phenyl]-cyclobutyl}-1,2,4-oxadiazole-5-carboxylic acid amide] were 1300 nM and 98 nM.
On the same counts, the results for `Cn1cccc(-c2nc(C3(c4ccc(-c5cnc(N)nc5)cc4)CCC3)no2)c1=O` [Example 32, 3-(3-{1-[4-(2-Amino-pyrimidin-5-yl)-phenyl]-cyclobutyl}-1,2,4-oxadiazol-5-yl)-1-methyl-1Hpyridin-2-one] are 77 nM and 4.6 nM.
In the case of `CC(C)(CO)Nc1cnc(-c2nc(C3(c4ccc(-c5cnc(N)nc5)cc4)CCC3)no2)cn1` [Example 121, 2-[5-(3-{1-[4-(2-Amino-pyrimidin-5-yl)-phenyl]-cyclobutyl}-1,2,4-oxadiazol-5-yl)-pyrazin-2-ylamino]-2-methyl-propan-1-ol], the IC50 in assay [1] (Homo sapiens) is 450 nM; in assay [2], 4.9 nM.
Taken in the same sequence, the figures for `Cc1cc(-c2nc(C3(c4ccc(-c5cnc(N)nc5)cc4)CCC3)no2)[nH]n1` [Example 5, 5-(4-{1-[5-(5-Methyl-2H-pyrazol-3-yl)-1,2,4-oxadiazol-3-yl]-cyclobutyl}-phenyl)-pyrimdin-2-ylamine] were over 5000 nM and 2.4 nM.
Taken in the same sequence, the figures for `CO[C@H]1CCN(C(=O)Cn2cc(-c3nc(C4(c5ccc(-c6cnc(N)nc6)cc5)CCC4)no3)cn2)C1` [Example 259, 2-[4-(3-{1-[4-(2-Amino-pyrimidin-5-yl)-phenyl]-cyclobutyl}-[1,2,4]oxadiazol-5-yl)-pyrazol-1-yl]-1-((S)-3-methoxy-pyrrolidin-1-yl)-ethanone] were 210 nM and 16 nM.
Turning to `Nc1ncc(-c2ccc(C3(c4noc(-c5cnn(CC(=O)NC6CC6)c5)n4)CCC3)cc2)cn1` [Example 132, 2-[4-(3-{1-[4-(2-Amino-pyrimidin-5-yl)-phenyl]-cyclobutyl}-1,2,4-oxadiazol-5-yl)-pyrazol-1-yl]-N-cyclopropyl-acetamide], the IC50 amounted to 69 nM in assay [1] (Homo sapiens) and 2.8 nM in assay [2].
On to `CS(=O)(=O)CCNC(=O)Cn1cc(-c2nc(C3(c4ccc(-c5cnc(N)nc5)cc4)CCC3)no2)cn1` [Example 225, 2-[4-(3-{1-[4-(2-Amino-pyrimidin-5-yl)-phenyl]-cyclobutyl}-[1,2,4]oxadiazol-5-yl)-pyrazol-1-yl]-N-(2-methanesulfonyl-ethyl)-acetamide], for which the results for the IC50 in assay [1] (Homo sapiens) and in assay [2] were over 5000 nM and 0.89 nM, respectively.
On the same counts, the results for `Cn1cnc(-c2nc(C3(c4ccc(-c5cnc(N)cn5)cc4)CCC3)no2)c1` [Example 265] are 55 nM and 6.2 nM.
With `Nc1ncc(-c2ccc(C3(c4noc(N5CC[C@H](O)C5)n4)CCC3)cc2)cn1` [Example 287, (S)-1-(3-{1-[4-(2-Amino-pyrimidin-5-yl)-phenyl]-cyclobutyl}-[1,2,4]oxadiazol-5-yl)-pyrrolidin-3-ol], the concentration for half-maximal inhibition (IC50) in assay [1] (Homo sapiens) turned out to be 200 nM; in assay [2], 36 nM.
Turning to `Nc1ncc(-c2ccc(C3(c4noc(C(=O)N5CCCC5)n4)CCC3)cc2)cn1` [Example 11, (3-{1-[4-(2-Amino-pyrimidin-5-yl)-phenyl]-cyclobutyl}-1,2,4-oxadiazol-5-yl)-pyrrolidin-1-yl-methanone], the IC50 in assay [1] (Homo sapiens) amounted to 1300 nM; in assay [2], 120 nM.
`Nc1ncc(-c2ccc(C3(c4noc(-c5cc(Cl)c[nH]c5=O)n4)CCC3)cc2)cn1` [Example 191, 3-(3-{1-[4-(2-Amino-pyrimidin-5-yl)-phenyl]-cyclobutyl}-1,2,4-oxadiazol-5-yl)-5-chloro-1H-pyridin-2-one]: the IC50 in assay [1] (Homo sapiens) was over 5000 nM; in assay [2], 2.6 nM.
With `Cn1cc(-c2nc(C3(c4ccc(-c5cnc(N)nc5)cc4)CCC3)no2)ncc1=O` [Example 31, 5-(3-{1-[4-(2-Amino-pyrimidin-5-yl)-phenyl]-cyclobutyl}-1,2,4-oxadiazol-5-yl)-1-methyl-1Hpyrazin-2-one], the IC50 was 1300 nM in assay [1] (Homo sapiens) and 3 nM in assay [2].
Taken in the same sequence, the figures for `CC(C)(O)Cn1cc(-c2nc(C3(c4ccc(-c5cnc(N)nc5)cc4)CC3)no2)cn1` [Example 254, 1-[4-(3-{1-[4-(2-Amino-pyrimidin-5-yl)-phenyl]-cyclopropyl}-[1,2,4]oxadiazol-5-yl)-pyrazol-1-yl]-2-methyl-propan-2-ol] were 4700 nM and 190 nM.
Take `CCNc1ccc(-c2nc(C3(c4ccc(-c5cnc(N)nc5)cc4)CCC3)no2)cn1` [Example 183, 5-(4-{1-[5-(6-Ethylamino-pyridin-3-yl)-1,2,4-oxadiazol-3-yl]-cyclobutyl}-phenyl)-pyrimidin-2-ylamine]: the concentration for half-maximal inhibition (IC50) in assay [1] (Homo sapiens) was found to be 53 nM; in assay [2] it was 0.88 nM.
On to `Nc1ncc(-c2ccc(C3(c4noc(-c5cccnc5)n4)CCC3)cc2)cn1` [Example 143, 5-{4-[1-(5-pyridin-3-yl-1,2,4-oxadiazol-3-yl)-cyclobutyl]-phenyl}-pyrimidin-2-ylamine], for which the IC50 in assay [1] (Homo sapiens) is 250 nM; in assay [2] it was 2.2 nM.
On to `Nc1ncc(-c2ccc(C3(c4noc(-c5cncn5C5COC5)n4)CCC3)cc2)cn1` [Example 264, 5-(4-{1-[5-(3-Oxetan-3-yl-3H-imidazol-4-yl)-[1,2,4]oxadiazol-3-yl]-cyclobutyl}-phenyl)-pyrimidin-2-ylamine], for which the IC50 is 280 nM in assay [1] (Homo sapiens) and 8.3 nM in assay [2].
For `Nc1ncc(-c2ccc(C3(c4noc(-c5cnn(C(=O)N6CCOCC6)c5)n4)CCC3)cc2)cn1` [Example 212, [4-(3-{1-[4-(2-Amino-pyrimidin-5-yl)-phenyl]-cyclobutyl}-[1,2,4]oxadiazol-5-yl)-pyrazol-1-yl]-morpholin-4-yl-methanone], the results for the IC50 in assay [1] (Homo sapiens) and in assay [2] were 22 nM and 2.2 nM, respectively.
On the same counts, the results for `CN(CCO)c1ccc(-c2nc(C3(c4ccc(-c5cnc(N)nc5)cc4)CCC3)no2)cn1` [Example 181, 2-{[5-(3-{1-[4-(2-Amino-pyrimidin-5-yl)-phenyl]-cyclobutyl}-1,2,4-oxadiazol-5-yl)-pyridin-2-yl]-methyl-amino}-ethanol] are 62 nM and 1.2 nM.
Taken in the same sequence, the figures for `Cc1cc(-c2cnc(N)nc2)ccc1C1(c2noc(-c3cnn(C)c3)n2)CCC1` [Example 295] were 100 nM and 12 nM.
On the same counts, the results for `COc1ccc(-c2nc(C3(c4ccc(-c5cnc(N)nc5)cc4)CCC3)no2)cc1` [Example 48, 5-(4-{1-[5-(4-Methoxy-phenyl)-1,2,4-oxadiazol-3-yl]-cyclobutyl}-phenyl)-pyrimidin-2-ylamine] are 430 nM and 2.5 nM.
`N#CC1CCN(CCn2cc(-c3nc(C4(c5ccc(-c6cnc(N)nc6)cc5)CCC4)no3)cn2)CC1` [Example 246, 1-{2-[4-(3-{1-[4-(2-Amino-pyrimidin-5-yl)-phenyl]-cyclobutyl}-[1,2,4]oxadiazol-5-yl)-pyrazol-1-yl]-ethyl}-piperidine-4-carbonitrile]: the IC50 in assay [1] (Homo sapiens) came out at 79 nM; in assay [2], 8.1 nM.
Turning to `Cn1cc(-c2nc(C3(c4ccc(-c5cnc(N)nc5)cc4)CCC3)no2)cnc1=O` [Example 185, 5-(3-{1-[4-(2-Amino-pyrimidin-5-yl)-phenyl]-cyclobutyl}-1,2,4-oxadiazol-5-yl)-1-methyl-1H-pyrimidin-2-one], the IC50 was 230 nM in assay [1] (Homo sapiens) and 7.3 nM in assay [2].
On the same counts, the results for `CS(=O)(=O)c1cccc(-c2nc(C3(c4ccc(-c5cnc(N)nc5)cc4)CCC3)no2)c1` [Example 39, 5-(4-{1-[5-(3-Methanesulfonyl-phenyl)-1,2,4-oxadiazol-3-yl]-cyclobutyl}-phenyl)-pyrimidin-2-ylamine] are 800 nM and 12 nM.
On the same counts, the results for `Nc1ncc(-c2ccc(C3(c4noc(-c5ccc(F)cc5)n4)CCC3)cc2)cn1` [Example 51, 5-(4-{1-[5-(4-Fluoro-phenyl)-1,2,4-oxadiazol-3-yl]-cyclobutyl}-phenyl)-pyrimidin-2-ylamine] are 1000 nM and 7 nM.
On the same counts, the results for `COCCn1cccc(-c2nc(C3(c4ccc(-c5cnc(N)nc5)cc4)CCC3)no2)c1=O` [Example 66, 3-(3-{1-[4-(2-Amino-pyrimidin-5-yl)-phenyl]-cyclobutyl}-1,2,4-oxadiazol-5-yl)-1-(2-methoxy-ethyl)-1H-pyridin-2-one] are 120 nM and 8.4 nM.
For the molecule `COC(=O)[C@H]1CN(c2cnc(-c3nc(C4(c5ccc(-c6cnc(N)nc6)cc5)CCC4)no3)cn2)CCN1` [Example 308, (R)-5′-(3-{1-[4-(2-Amino-pyrimidin-5-yl)-phenyl]-cyclobutyl}-1,2,4-oxadiazol-5-yl)-3,4,5,6-tetrahydro-2H-1,2′-bipyrazinyl-3-carboxylic acid methyl ester], the values for the concentration for half-maximal inhibition (IC50) in assay [1] and in assay [2] were 480 nM and 5 nM, respectively.
